Legend:
NF1 protein [1] = assay: Western blot of NF1 protein in mouse embryonic fibroblasts (MEF); type: cell-based; conditions: for NF1 protein increasing effect (Western blot): MEF cells, 6 hours, compared to other substances, FIG. 10; for NF1 protein quantification (Western blot) vs control group: MEF
Description: (§1) The effect of increasing NF1 protein in human renal epithelial-like cells (293T), human lung cancer cells (A549), and mouse embryonic fibroblasts (MEF) was analyzed using Western blot. Specifically, the cells incubated in a 10% FBS+DMEM culture medium for 48 hours were treated with 5 μM each of compounds for 6 hours, and then the quantified protein samples were subjected to electrophoresis. After electrophoresis, the proteins in the gel were transferred to a PVDF membrane and then Western blot was performed using NF1 antibody (Abcam, Cat#ab128054).
In addition, the effect of increasing NF1 protein in mouse embryonic fibroblasts (MEF) was analyzed using Western blot. A specific method was as described in Experimental Example 3.
The effect of increasing NF1 protein in mouse embryonic fibroblasts (MEF) was analyzed using Western blot. A specific method was as described in Experimental Example 3.

NF1-GRD1 protein [2] = assay: Nano-Glo HiBiT lytic assay of NF1-GRD1 protein in stable 293T cells; type: cell-based, human; conditions: for effect of increasing NF1 protein, times higher than control group: 293T cells stably expressing NF1-GRD1, treated 24 hours, luciferase activity vs DMSO-treated control, FIG. 8; for concentration showing the highest activity: 0-5.0 μM tested
NF1 protein [3] = assay: Western blot of NF1 protein in skin cells of NF1 patients; type: cell-based, human; conditions: 1 μM; normal cells and NF-09, NF-21, NF-11 cells, FIG. 13
Description: as §1
The effect of increasing NF1 protein in skin cells NF-09, NF-21, and NF-11 of NF1 patients was analyzed using Western blot. A specific method was as described in Experimental Example 3.

[4] = system: A549GR (anticancer resistant) cells; assay: MTT assay in A549GR cells; type: cell-based, human; conditions: various concentrations, 72 hours, FIG. 11
Description: (§2) Human lung cancer cells A549 and A549GR were treated with PN-NF27, PN-NF28, PN-NF30, PN-NF38, and PN-NF41, respectively, and then the MTT assay results were shown. Specifically, A549 and A549GR (anticancer resistant) cells incubated for 24 hours in a 96 well plate were treated with various concentrations of compounds for 72 hours, respectively, and then added with 10 μl of 3-(4,5-dimethylthiazole-2-yl)-2,5-diphenyltetrazolium bromide (MTT) and after 2 hours, the absorbance was measured at 550 nm.

NF1 protein [5] = assay: Western blot of NF1 protein in 293T cells; type: cell-based, human; conditions: 5 μM, 6 hours, FIG. 10
Description: as §1

[6] = system: skin cells NF-09, NF-21, and NF-11 of NF1 patients; assay: MTT assay in skin cells of NF1 patients; type: cell-based, human
Description: The cell proliferation inhibitory effect of PN-NF27 was confirmed by an MTT method using skin cells NF-09, NF-21, and NF-11 of NF1 patients. […]
The cell proliferation inhibitory effect of PN-NF38 was confirmed using skin cells NF-09, NF-21, and NF-11 of NF1 patients. Specifically, skin fibroblasts (passage>8) incubated for 48 hours were treated with PN-NF38 at 0, 0.1, 1, 2.5, 5, and 10 μM for 24 hours, and then added with 3-(4,5-dimethylthiazol-2-yl)-2,5-diphenyltetrazolium bromide (MTT) and reacted for 1 hours, and then the absorbance was measured at 550 nm.
The cell proliferation inhibitory effect of PN-NF41 was confirmed using skin cells NF-09, NF-21, and NF-11 of NF1 patients. Specifically, skin fibroblasts (passage>8) incubated for 24 hours were treated with 5 μM of PN-NF41 for 72 hours, and then added with 3-(4,5-dimethylthiazol-2-yl)-2,5-diphenyltetrazolium bromide (MTT) and reacted for 1 hours, and then the absorbance was measured at 550 nm.

NF1-GRD1 protein [7] = assay: Nano-Glo HiBiT lytic assay of NF1-GRD1 protein in stable 293T cells; type: cell-based, human; conditions: FIG. 9; for treatment time at which the maximum effect was shown: 6 hours and 24 hours tested
Description: The cells were treated in the same manner as in Experimental Example 1 except that the treatment time was 6 hours and 24 hours, respectively, and the results of measuring the activity in each case were illustrated in FIG. 9.
The cells were treated in the same manner as in Experimental Example 1, except that the treatment time was 6 hours and 24 hours, respectively, and the concentration of PN-NF27 was 0 μM, 0.25 μM, 0.5 μM, 1.0 μM, and 5.0 μM, and the results of measuring the activity in each case were illustrated in FIG. 8.

NF1 protein [8] = assay: Western blot of NF1 protein in A549 cells; type: cell-based, human; conditions: 5 μM, 6 hours, FIG. 10
Description: as §1

[9] = system: human lung cancer cells A549; assay: MTT assay in A549 cells; type: cell-based; conditions: A549, various concentrations, 72 hours, FIG. 11
Description: as §2

[10] = system: HCT-8, HCT-15, HCT-116, PANC1, and PC3 cells; assay: MTT assay in colon, pancreatic and prostate cancer cells; type: cell-based, human; conditions: 0, 0.1, 0.5, 1, 5, 10 μM, 72 hours, FIG. 17
Description: The cell proliferation inhibitory effect of PN-NF30 was confirmed using human colon cancer cells HCT-8, HCT-15, and HCT-116, human pancreatic cancer cells PANC1, and human prostate cancer cells PC3. Specifically, the HCT-8, HCT-15, HCT-116, PANC1, and PC3 cells incubated for 24 hours in a 96 well plate were treated with compounds at concentrations of 0, 0.1, 0.5, 1, 5, and 10 μM for 72 hours, respectively, and then added with 10 μl of 3-(4,5-dimethylthiazole-2-yl)-2,5-diphenyltetrazolium bromide (MTT) and after 1 hours, the absorbance was measured at 550 nm.

SMILES | NF1 protein increasing effect (Western blot) (NF1 protein [1]; 5 μM) | NF1 protein quantification (Western blot) vs control group (NF1 protein [1]; 1 μM, FIG. 14) | effect of increasing NF1 protein, times higher than control group (NF1-GRD1 protein [2]) | activity compared with the case not treated (0 μM) (NF1-GRD1 protein [2]; PN-NF27 at 0.25, 0.5, 1.0, 5.0 μM, 6 hours and 24 hours, FIG. 12) | concentration showing the highest activity (NF1-GRD1 protein [2]; incubated for 24 hours, FIG. 12) | concentration showing the highest activity (NF1-GRD1 protein [2]; treated for 6 hours, FIG. 12) | NF1 protein (Western blot) treated vs not treated (NF1 protein [3]) | cell proliferation (MTT) [4] | NF1 protein increasing effect (Western blot) (NF1 protein [5]) | cell proliferation (MTT) treated vs not treated ([6]; 1 μM (result text), 72 hours, normal cells and NF-09, NF-21, NF-11 cells, FIG. 15) | treatment time at which the maximum effect was shown (NF1-GRD1 protein [7]) | maximum effect compared to the control group (NF1-GRD1 protein [7]; treatment time 6 hours) | NF1 protein increasing effect (Western blot) (NF1 protein [8]) | cell proliferation (MTT) [9] | NF1 protein quantification (Western blot) vs control group (NF1 protein [1]; 5 μM, FIG. 16) | cell proliferation (MTT), concentration dependence [10] | NF1 protein quantification (Western blot) vs control group (NF1 protein [1]; 2 μM, FIG. 18) | cell proliferation (MTT), concentration dependence ([6]; 0, 0.1, 1, 2.5, 5, 10 μM, 24 hours, FIG. 19) | cell viability (MTT) ([6]; 10 μM, 24 hours, FIG. 19) | maximum effect compared to the control group (NF1-GRD1 protein [7]; treatment time 24 hours)
C/C=C(/C)C(=O)O[C@H]1C(C)=C[C@]23C(=O)[C@@H](C=C(COC(C)=O)[C@@H](O)[C@]12O)[C@H]1[C@@H](C[C@H]3C)C1(C)C [PN-NF27, 20-O-acetylingenol-3-angelate] | superior to other substances | tended to increase | about 6 times | higher activity | 0.5 µM | 5.0 µM | tended to increase | effectively inhibited | excellent | tended to be inhibited | ≤ 6 h | 24 fold | superior to other substances | effectively inhibited | – | – | – | – | – | –
CN1CCc2cccc3c2[C@H]1Cc1ccc(O)c(O)c1-3.CN1CCc2cccc3c2[C@H]1Cc1ccc(O)c(O)c1-3.Cl.Cl.O [PN-NF30, R(−) Apomorphine hydrochloride hemihydrate, reference compound] | – | – | about 2 times | – | – | – | – | effectively inhibited | – | – | – | – | superior to other substances | effectively inhibited | tended to increase | tended to effectively inhibit cell proliferation as the concentration increased | – | – | – | –
C=C(NC(=O)C(=C)NC(=O)c1csc(C2=N[C@@H]3c4csc(n4)[C@H]4NC(=O)c5csc(n5)[C@H]([C@](C)(O)[C@@H](C)O)NC(=O)[C@H]5CSC(=N5)/C(=C/C)NC(=O)[C@H]([C@@H](C)O)NC(=O)c5csc(n5)[C@]3(CC2)NC(=O)[C@H](C)NC(=O)C(=C)NC(=O)[C@H](C)NC(=O)[C@H]([C@@H](C)CC)N[C@@H]2C=Cc3c([C@H](C)O)cc(nc3[C@H]2O)C(=O)O[C@@H]4C)n1)C(N)=O [PN-NF38, Thiostrepton] | superior to other substances | – | about 20 times | – | – | – | – | effectively inhibited | – | – | 24 h | – | superior to other substances | effectively inhibited | – | – | tended to increase | tended to be effectively inhibited as the concentration of PN-NF38 cells increased | less than 0.3 | 11 fold

Source: patent US20240374677A1, “VARIOUS COMPOUNDS FOR THE TREATMENT OF NEUROFIBROMATOSIS TYPE 1” (PUSAN NATIONAL UNIVERSITY INDUSTRY-UNIVERSITY COOPERATION …, priority 2023, published 2024)
